Assay results reported in patent US9029384B2, “Phosphatidylinositol 3-kinase inhibitors” (Gilead Calistoga LLC, priority 2012, dated 2015).
pEC50, pIC50: −log10 of the molar value. Where two headings read alike, the source gives them in different places.

Columns and labels:
PI3Kδ = biological target: T1, PI3Kδ (Homo sapiens, UniProt O00329); assay: Enzymatic activity of PI3K isoforms, TR-FRET assay (PIP3 formation); type: biochemical; conditions: read-out: IC50
T1 construct: made in house
Excerpt: Enzymatic Activity of PI3K Isoforms
The TR-FRET assay was used to monitor formation of the product 3,4,5-inositol triphosphate molecule (PIP3) as it competed with fluorescently labeled PIP3 for binding to the GRP-1 pleckstrin homology domain protein. An increase in […] product results in a decrease in TR-FRET signal as the labeled fluorophore is displaced from the GRP-1 protein binding site.
Class I PI3K isoforms were expressed and purified as heterodimeric recombinant proteins. All assay reagents and buffers for the TR-FRET assay were purchased from Millipore. […] After an assay reaction time of 30 minutes at 25° C., reactions were terminated with a final concentration of 10 mM EDTA, 10 nM labeled-PIP3, and 35 nM Europium labeled GRP-1 detector protein before reading TR-FRET on an Envision plate reader (Ex: 340 nm; Em: 615/665 nm; 100 μs delay and 500 μs read window).
Data are normalized based on a positive (1 uM wortmanin) and negative (DMSO) controls. The α, β, δ, and γ IC50 values were calculated from the fit of the dose-response curves to a four-parameter equation. IC50 are reported in units of nM.
IC50 values were obtained for all PI3K isoforms (α, β, δ, and γ), and Table 2 summarizes the IC50 data collected for PI3Kδ in this Example B1.

basophils = assay: Basophil activation in human whole blood (Flow2 CAST kit, CD63 positive cells); type: cell-based
Method: Effect on basophil activation was measured in human whole blood using the Flow2 CAST® kit (Buhlmann Laboratories AG, Baselstrasse, Switzerland) following the protocol provided by the manufacturer with minor modifications. Human whole blood was collected into K2-EDTA venipuncture tubes. Whole blood samples were treated with either DMSO (0.3% final) or a serial dilution of compounds in DMSO for 60 minutes at 37° C. Basophils were then activated either with anti-FcεRI mAb or with fMLP. To activate basophils using the anti-FcεRI mAb; 50 μl of whole blood was mixed with 110 μl of stimulation buffer (B-BAT-STB) and 20 μl of anti-FcεRI (B-BAT-STCON). To activate basophils with fMLP; 50 μl of whole blood was mixed with 80 μl of stimulation buffer (B-BAT-STB) and 50 μl of fMLP (B-CCR-FMLP). Stimulation buffer was used as a negative control. 20 μl of the staining reagent (combination of anti-human CD63-FITC and anti-human CCR3-PE mAbs) was then added to each tube. […] Subsequently, erythrocytes were lysed and fixed by the addition of 2 ml of lysing solution (B-BAT-LYR) for 10 min at room temperature. Cells were pelleted by centrifugation at 1200 rpm for 10 min at room temperature in a swing-out rotor. Supernatant was aspirated and cell pellet resuspended in 400 μl of wash buffer. Flow cytometric analysis of the basophil activation was performed on a FC500MPL flow cytometer (Beckman Coulter Inc., Fullerton, Calif.). CCR3-staining and side scatter were applied to gate at least 200 basophils that expressed a high density of CCR3. The percent CD63 positive cells within the gated basophil population were determined in different treatment groups and normalized to the vehicle control (0.3% DMSO) with anti-FcεRI mAb of fMLP stimulus as 100%. Final compound concentration was adjusted to correct for dilution effect of added reagents. The EC50 values were calculated from the analysis of the dose-response curves to a four-parameter equation. All EC50 values represent geometric mean values and are reported in units of nM.

[1] = Hepatocyte stability, 0.01% final DMSO, 1 μM substrate (t1/2^b); type: in vitro ADME; conditions: human, hepatocytes, TA with 0.01% final DMSO
Method: Alternatively, assay reagents and/or conditions can be modified in determining the inhibitory activities to PI3K isomers. In additional studies, similar assay using TA and 0.01% final DMSO concentration were incubated with 1 million hepatocytes/mL at 1 μM substrate in duplicate. The incubation was carried out at 37° C. with 5% CO2 and saturating humidity.

[2] = PI3Kδ, TR-FRET, 2×Km ATP, 10 μM PIP2
[3] = Homo sapiens, basophils activated with anti-FcεRI mAb or fMLP, geometric mean
[4] = 1 μM substrate, samples at 0, 1, 3, 6 hours, read-out: human hepatocyte t½^b
[5] = basophils activated with anti-FcεRI mAb or fMLP, geometric mean

T1 sequence (O00329 whole entry, canonical isoform): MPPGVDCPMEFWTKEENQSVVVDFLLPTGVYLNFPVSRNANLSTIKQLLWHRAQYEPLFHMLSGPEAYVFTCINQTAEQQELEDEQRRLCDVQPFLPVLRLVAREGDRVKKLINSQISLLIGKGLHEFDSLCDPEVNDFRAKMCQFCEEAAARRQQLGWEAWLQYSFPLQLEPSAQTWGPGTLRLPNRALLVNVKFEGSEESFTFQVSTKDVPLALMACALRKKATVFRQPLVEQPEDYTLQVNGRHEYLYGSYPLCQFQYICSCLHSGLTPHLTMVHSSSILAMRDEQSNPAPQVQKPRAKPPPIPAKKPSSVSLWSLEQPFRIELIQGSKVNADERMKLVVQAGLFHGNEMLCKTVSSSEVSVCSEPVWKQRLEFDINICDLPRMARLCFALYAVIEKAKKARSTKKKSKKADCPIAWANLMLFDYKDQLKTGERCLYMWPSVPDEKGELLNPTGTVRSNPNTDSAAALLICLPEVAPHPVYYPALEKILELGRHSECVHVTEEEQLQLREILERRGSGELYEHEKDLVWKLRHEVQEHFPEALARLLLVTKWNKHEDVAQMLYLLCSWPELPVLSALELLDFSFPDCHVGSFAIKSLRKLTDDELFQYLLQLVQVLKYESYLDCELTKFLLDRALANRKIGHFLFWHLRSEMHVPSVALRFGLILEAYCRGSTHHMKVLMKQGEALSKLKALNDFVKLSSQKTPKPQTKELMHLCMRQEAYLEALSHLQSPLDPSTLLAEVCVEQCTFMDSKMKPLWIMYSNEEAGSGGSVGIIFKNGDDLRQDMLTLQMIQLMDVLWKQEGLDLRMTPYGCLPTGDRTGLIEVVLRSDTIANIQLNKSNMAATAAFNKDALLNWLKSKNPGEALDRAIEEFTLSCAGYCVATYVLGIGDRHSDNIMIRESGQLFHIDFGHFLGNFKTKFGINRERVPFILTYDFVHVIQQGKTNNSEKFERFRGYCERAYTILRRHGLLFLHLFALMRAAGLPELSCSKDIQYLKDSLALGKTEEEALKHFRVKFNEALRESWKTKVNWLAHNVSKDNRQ
T1 sequence (P27986 whole entry partner, canonical isoform): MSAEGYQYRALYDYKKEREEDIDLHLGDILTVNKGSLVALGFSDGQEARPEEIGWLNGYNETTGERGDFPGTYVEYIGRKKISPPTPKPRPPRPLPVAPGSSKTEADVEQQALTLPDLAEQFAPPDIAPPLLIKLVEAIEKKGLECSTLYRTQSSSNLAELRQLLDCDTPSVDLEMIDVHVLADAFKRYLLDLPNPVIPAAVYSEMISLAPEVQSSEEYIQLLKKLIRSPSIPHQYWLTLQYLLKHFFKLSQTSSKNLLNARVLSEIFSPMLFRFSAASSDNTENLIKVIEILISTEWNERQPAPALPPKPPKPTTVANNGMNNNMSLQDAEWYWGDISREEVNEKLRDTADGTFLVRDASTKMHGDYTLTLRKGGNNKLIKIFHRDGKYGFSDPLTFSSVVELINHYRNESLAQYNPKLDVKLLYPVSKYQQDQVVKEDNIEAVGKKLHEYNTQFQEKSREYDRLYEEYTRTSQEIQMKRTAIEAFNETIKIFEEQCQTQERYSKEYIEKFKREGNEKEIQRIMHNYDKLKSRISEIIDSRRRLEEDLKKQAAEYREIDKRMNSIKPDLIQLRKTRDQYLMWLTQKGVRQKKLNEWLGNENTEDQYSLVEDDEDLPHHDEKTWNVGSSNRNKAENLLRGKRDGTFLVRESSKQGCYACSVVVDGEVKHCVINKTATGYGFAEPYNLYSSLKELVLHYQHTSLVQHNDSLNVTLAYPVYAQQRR

Row | Compound | pIC50 (PI3Kδ; [2]) | pEC50 (basophils; [3]) | further results
1 | COCC(Nc1nc(N)nc(N)c1C#N)c1nc2cccc(Cl)c2c(=O)n1-c1cc(F)cc(F)c1 (single isomer, unassigned) [Compound 135a] | 8.00 to 9.00 | 8.00 to 9.00 | half-life at 1 μM [1, 4]: 1 to 3 h
2 | C[C@H](Nc1nc(N)nc(N)c1C#N)c1nc2cccc(F)c2c(=O)n1-c1cccc(C(F)F)c1 [Compound 121a, (S)-2,4-diamino-6-(1-(3-(3-(difluoromethyl)phenyl)-5-fluoro-4-oxo-3,4-dihydroquinazolin-2-yl)ethylamino)pyrimidine-5-carbonitrile] | 8.00 to 9.00 | 8.00 to 9.00 | half-life at 1 μM [1, 4]: 3 to 6 h
3 | CC(Nc1nc(N)nc(N)c1C#N)c1nc2c(Cl)cc(F)cc2c(=O)n1-c1cc(F)cc(F)c1 (single isomer, unassigned) [Compound 89a] | 8.00 to 9.00 | 8.00 to 9.00 | half-life at 1 μM [1, 4]: 6 to 10 h
4 | CC(Nc1nc(N)nc(N)c1C#N)c1nc2c(F)ccc(C#N)c2c(=O)n1-c1ccccc1 (single isomer, unassigned) [Compound 124a] | 8.00 to 9.00 | 8.00 to 9.00 | 
5 | CC(Nc1nc(N)nc(N)c1C#N)c1nc2cccc(F)c2c(=O)n1-c1ccccc1 (single isomer, unassigned) [Compound 81a] | 8.00 to 9.00 | > 9.00 | 
6 | CC(Nc1nc(N)nc(N)c1C#N)c1nc2cccc(Cl)c2c(=O)n1-c1cc(C(F)F)cc(C(F)F)c1 (single isomer, unassigned) [Compound 119a] | 8.00 to 9.00 | 7.30 to 8.00 | 
7 | CC(Nc1nc(N)nc(N)c1C#N)c1nc2ccc(F)cc2c(=O)n1-c1cccc(Cl)c1 (single isomer, unassigned) [Compound 14a] | 8.00 to 9.00 | 8.00 to 9.00 | 
8 | CC(Nc1nc(N)nc(N)c1Cl)c1cc2cccc(Cl)c2c(=O)n1-c1ccccc1 (single isomer, unassigned) [Compound 195a] |  |  | pIC50 (PI3Kδ): > 9.00; pEC50 (basophils; [5]): 8.00 to 9.00
9 | CC(Nc1nc(N)nc(N)c1C#N)c1nc2cccc(S(C)(=O)=O)c2c(=O)n1-c1cc(F)cc(F)c1 (single isomer, unassigned) [Compound 96a] | 8.00 to 9.00 | 7.30 to 8.00 | 
10 | CC(Nc1nc(N)nc(N)c1C#N)c1nc2cccc(C(F)F)c2c(=O)n1-c1ccccc1 (single isomer, unassigned) [Compound 62a] | > 9.00 | > 9.00 | 
11 | Cc1ccc(F)c2nc(C(C)Nc3nc(N)nc(N)c3C#N)n(-c3ccccc3)c(=O)c12 (single isomer, unassigned) [Compound 60a] | > 9.00 | > 9.00 | 
12 | C[C@H](Nc1ncnc(N)c1C#N)c1nc2cccc(F)c2c(=O)n1-c1cccc(F)c1 [Compound V, reference compound] |  |  | pEC50 (basophils; Homo sapiens, basophil activation): < 8.40; half-life at 1 μM ([1]; human hepatocytes, read-out: t1/2^b): < 1 h
13 | CC(Nc1nc(N)nc(N)c1C#N)c1nc2cccc(S(C)(=O)=O)c2c(=O)n1-c1cccc(F)c1 (single isomer, unassigned) [Compound 117a] | 8.00 to 9.00 | 7.30 to 8.00 | 
14 | CC(Nc1nc(N)nc(N)c1C#N)c1nc2ccc(F)cc2c(=O)n1-c1ccccc1 (single isomer, unassigned) [Compound 9a] | 8.00 to 9.00 | 8.00 to 9.00 | 
15 | CC(Nc1nc(N)nc(N)c1C#N)c1nc2cccc(C(N)=O)c2c(=O)n1-c1ccccc1 (single isomer, unassigned) [Compound 92a] | 8.00 to 9.00 | < 7.30 | 
16 | CC(Nc1nc(N)nc(N)c1C#N)c1nc2cccc(C#N)c2c(=O)n1-c1cccc(F)c1 (single isomer, unassigned) [Compound 131a] | 8.00 to 9.00 | 8.00 to 9.00 | 
17 | Cc1cccc2nc(C(C)Nc3nc(N)nc(N)c3C#N)n(-c3ccccc3)c(=O)c12 (single isomer, unassigned) [Compound 23a] | > 9.00 | > 9.00 | 
18 | CC(Nc1nc(N)nc(N)c1C#N)c1nc2cccc(C#N)c2c(=O)n1-c1ccccc1 (single isomer, unassigned) [Compound 7a] | 8.00 to 9.00 | > 9.00 | 

More lines, main results first:

Row | pIC50 (PI3Kδ; [2]) | pEC50 (basophils; [3]) | Compound | further results
19 | 8.00 to 9.00 | 8.00 to 9.00 | CCC(Nc1nc(N)nc(N)c1C#N)c1nc2cccc(F)c2c(=O)n1-c1cccc(F)c1 (single isomer, unassigned) [Compound 179a] | half-life at 1 μM [1, 4]: 6 to 10 h
20 | 8.00 to 9.00 | 8.00 to 9.00 | CC(Nc1nc(N)nc(N)c1C#N)c1nc2cccc(Cl)c2c(=O)n1-c1cc(F)cc(OC(F)(F)F)c1 (single isomer, unassigned) [Compound 193a] | half-life at 1 μM [1, 4]: 1 to 3 h
21 | 8.00 to 9.00 | 8.00 to 9.00 | CCC(Nc1nc(N)nc(N)c1C#N)c1nc2c(F)ccc(F)c2c(=O)n1-c1cccc(F)c1 (single isomer, unassigned) [Compound 151a] | half-life at 1 μM [1, 4]: 3 to 6 h
22 | > 9.00 | 7.30 to 8.00 | CC(Nc1nc(N)nc(N)c1C(N)=O)c1nc2cccc(Cl)c2c(=O)n1-c1ccccc1 (single isomer, unassigned) [Compound 183a] | half-life at 1 μM [1, 4]: 6 to 10 h
23 | < 7.30 |  | Cc1c(F)ccc(-n2c(C(C)Nc3nc(N)nc(N)c3C#N)nc3cccc(Cl)c3c2=O)c1C (single isomer, unassigned) [Compound 203a-2] | pEC50 (basophils; [5]): 7.30 to 8.00
24 | 7.30 to 8.00 |  | Cc1c(F)cc(F)cc1-n1c(C(C)Nc2nc(N)nc(N)c2C#N)nc2cccc(Cl)c2c1=O (single isomer, unassigned) [Compound 200a-1] | pEC50 (basophils; [5]): 7.30 to 8.00
25 | 8.00 to 9.00 | < 7.30 | CC(C)CC(Nc1nc(N)nc(N)c1C#N)c1nc2cccc(Cl)c2c(=O)n1-c1cccc(F)c1 (single isomer, unassigned) [Compound 168a] | 
26 | 7.30 to 8.00 |  | Cc1c(C(F)F)cccc1-n1c(C(C)Nc2nc(N)nc(N)c2C#N)nc2cccc(Cl)c2c1=O (single isomer, unassigned) [Compound 189a-1] | pEC50 (basophils; [5]): < 7.30
27 | 8.00 to 9.00 |  | CC(Nc1nc(N)nc(N)c1C#N)c1nc2cccc(Cl)c2c(=O)n1-c1cc(C(F)F)cc(C(F)F)c1 (single isomer, unassigned) [Compound 137a] | pEC50 (basophils; [5]): 7.30 to 8.00
28 | 8.00 to 9.00 |  | CC(Nc1nc(N)nc(N)c1C#N)c1nc2cccc(S(C)(=O)=O)c2c(=O)n1-c1ccccc1F (single isomer, unassigned) [Compound 142a-2] | pEC50 (basophils; [5]): 7.30 to 8.00
29 | 8.00 to 9.00 |  | Cc1ccc(C(F)F)cc1-n1c(C(C)Nc2nc(N)nc(N)c2C#N)nc2cccc(Cl)c2c1=O (single isomer, unassigned) [Compound 188a-1] | pEC50 (basophils; [5]): 7.30 to 8.00
30 | 8.00 to 9.00 | > 9.00 | CC(Nc1nc(N)nc(N)c1C#N)c1nc2c(F)ccc(F)c2c(=O)n1-c1cccc(F)c1 (single isomer, unassigned) [Compound 148a] | 
31 | 8.00 to 9.00 | 8.00 to 9.00 | CC(C)C(Nc1nc(N)nc(N)c1C#N)c1nc2cccc(Cl)c2c(=O)n1-c1cc(F)cc(F)c1 (single isomer, unassigned) [Compound 198a] | 
32 | 8.00 to 9.00 |  | COc1ccc(C)c(-n2c(C(C)Nc3nc(N)nc(N)c3C#N)nc3cccc(Cl)c3c2=O)c1 (single isomer, unassigned) [Compound 187a-2] | pEC50 (basophils; [5]): 8.00 to 9.00
33 | > 9.00 |  | Cc1cccc(-n2c(C(C)Nc3nc(N)nc(N)c3C#N)nc3cccc(Cl)c3c2=O)c1C (single isomer, unassigned) [Compound 202a-1] | pEC50 (basophils; [5]): 8.00 to 9.00
34 | 7.30 to 8.00 |  | Cc1cccc(-n2c(C(C)Nc3nc(N)nc(N)c3C#N)nc3cccc(Cl)c3c2=O)c1C (single isomer, unassigned) [Compound 202a-2] | pEC50 (basophils; [5]): < 7.30
